The record followed here is patent US20110028715A1, “NOVEL ADENINE COMPOUND” (priority 2007, published 2011).

Marks after values point to notes of the source that are not given here.

In one test the test system is IFN-α. Kind of test: IFN-α production inducing activity in mice (plasma IFN-α by L929/2-5AS-Luc bioassay). The class given is in vivo, B6C3F1 mice. The following applies: 3 hours after 1 mg/kg intravenously via tail vein, mean ± standard deviation (n = 3). The method, then: A test compound was administered to B6C3F1 mice (Charles River Japan, Inc.) via tail vein at the dose of 1 mg/kg intravenously. After 3 hours, total blood was collected into a sample tube containing heparin. Plasma was prepared from total blood after centrifugation (3,000 rpm, 10 min, at room temperature) and stored at −20° C.
Murine fibroblasts (L929/2-5AS-Luc), which constitutively expressed luciferase gene in which the promoter region for 2′-5′-oligoadenylate synthase was cloned, was seeded into 96-well plate at 4×10^4 cells/well, and cultured for overnight with diluted plasma or mouse IFN-α. After Luclite (Perkin Elmer) was added to the plate, the luciferase activity was measured with TopCount (Perkin Elmer).
The concentration of IFN-α in plasma was calculated by linear regression of logarithmic transformed concentration of mouse IFN-α and the luciferase activity.
Regarding `COCCOc1nc(N)c2[nH]c(=O)n(Cc3ccc(N4CCN(C)CC4)nc3)c2n1` [Example 42, 6-Amino-2-(2-methoxyethoxy)-9-[6-(4-methylpiperazin-1-yl)pyridin-3-ylmethyl]-7,9-dihydropurin-8-one], the “Mouse IFN-α” value was 30.0 ± 7.3 IU/mL.
For the compound `COCCOc1nc(N)c2[nH]c(=O)n(Cc3ccc(CN4CCCCC4)cc3)c2n1` [Example 10, 6-Amino-2-(2-methoxyethoxy)-9-(4-piperidin-1-ylmethylbenzyl)-7,9-dihydropurin-8-one], the “Mouse IFN-α” value was 7.3 ± 1.6 IU/mL.
Regarding `CCCCNc1nc(N)c2[nH]c(=O)n(Cc3ccc(OCCN(C)C)nc3)c2n1` [Example 54, 6-Amino-2-butylamino-9-[6-(2-dimethylaminoethoxy)pyridin-3-ylmethyl]-7,9-dihydropurin-8-one], the “Mouse IFN-α” value was 53.6 ± 6.5^a) IU/mL.

The target of a further test is T1, human TLR7 (Homo sapiens, UniProt Q9NYK1).
T1 construct: expressed in transfected cells; host or cells: HEK 293 (hTLR7/seap-293)
T1 sequence (Q9NYK1 27-1049): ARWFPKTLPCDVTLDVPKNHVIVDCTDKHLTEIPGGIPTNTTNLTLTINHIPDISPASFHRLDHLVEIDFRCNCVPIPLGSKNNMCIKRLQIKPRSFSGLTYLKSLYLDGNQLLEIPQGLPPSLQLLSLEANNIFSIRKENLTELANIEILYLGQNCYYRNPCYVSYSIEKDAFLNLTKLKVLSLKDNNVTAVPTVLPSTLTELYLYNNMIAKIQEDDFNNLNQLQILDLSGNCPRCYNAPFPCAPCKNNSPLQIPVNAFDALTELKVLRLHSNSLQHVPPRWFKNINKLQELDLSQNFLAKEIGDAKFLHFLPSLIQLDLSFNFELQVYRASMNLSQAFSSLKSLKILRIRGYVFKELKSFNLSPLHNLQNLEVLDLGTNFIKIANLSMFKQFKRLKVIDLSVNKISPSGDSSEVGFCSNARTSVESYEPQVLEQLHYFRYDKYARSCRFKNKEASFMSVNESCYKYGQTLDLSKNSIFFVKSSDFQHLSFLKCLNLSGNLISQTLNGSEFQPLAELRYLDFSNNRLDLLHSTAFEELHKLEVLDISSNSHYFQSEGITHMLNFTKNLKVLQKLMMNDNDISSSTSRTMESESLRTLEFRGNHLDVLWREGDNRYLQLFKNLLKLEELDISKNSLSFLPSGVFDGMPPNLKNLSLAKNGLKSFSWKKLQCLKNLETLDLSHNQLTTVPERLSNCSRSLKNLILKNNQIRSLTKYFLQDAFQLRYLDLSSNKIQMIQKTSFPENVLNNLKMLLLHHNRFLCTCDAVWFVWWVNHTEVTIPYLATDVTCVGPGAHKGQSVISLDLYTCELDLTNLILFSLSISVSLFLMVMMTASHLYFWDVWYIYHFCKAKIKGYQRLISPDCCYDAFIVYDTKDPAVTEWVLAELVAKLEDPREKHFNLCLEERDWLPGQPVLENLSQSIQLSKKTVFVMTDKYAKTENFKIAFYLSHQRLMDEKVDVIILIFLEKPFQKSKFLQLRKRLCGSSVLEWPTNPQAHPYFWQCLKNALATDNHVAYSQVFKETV
The test is described as follows: Human TLR7 reporter assay (NF-kB-SEAP, HEK 293 cells). The class given is cell-based. The following applies: Table 1; HEK 293 hTLR7/NF-kB-SEAP reporter, 20 hours incubation; read-out: human TLR7 binding activity EC50. As to the method:
HEK 293 cells, to which human TLR7 or rat TLR7 plasmid and reporter plasmid (NF-kB-SEAP) were stably introduced, were suspended in DMEM medium (10% FBS, 1% NEAA, 10 ug/mL blastocidin S HCl, 100 ug/mL Zeocin), and seeded into a 96-well plate in an amount of 90 μl/well (hTLR7/seap-293: 20,000 cells/well, rTLR7/seap-293: 25,000 cells/well).
A test compound (DMSO stock solution (2 μl) was diluted into 100-fold with the medium (200 μl)) was added into the cells seeded in the 96-well plate in an amount of 10 μl/well (final concentration: 1 nM to 10 μM, common ratio: 3). The side of the plate was lightly patted for stiffing the content of the plate, and the plate was incubated for 20 hours in a CO2 incubator. To the cells that were stimulated with a test compound was added a substrate for reporter assay (substrate for SEAP, pNPP) in an amount of 50 μl/well. The minute later after the addition of the substrate, the solution for reaction quenching (4N NaOH) was added to the plate in an amount of ? 50 μl/well in order to quench the enzyme reaction. A top seal A was applied to the plate, and the absorbance at 405 nm was measured by a microplate reader.
In a similar manner to Example 85, the following compounds were tested.
(Reporter assays use an easily measured gene product as a stand-in for the process of interest.)
Turning to `CCCCNc1nc(N)c2[nH]c(=O)n(Cc3cnc(N4CCN(C)CC4)c(Cl)c3)c2n1` [Example 56, 6-Amino-2-butylamino-9-[5-chloro-6-(4-methylpiperazin-1-yl)pyridin-3-ylmethyl]-7,9-dihydropurin-8-one], the 50% effective concentration (EC50) stood at 1.3 nM.
Turning to `CCCCOc1nc(N)c2[nH]c(=O)n(Cc3ccc(CN4CCCCC4)cc3)c2n1` [Example 2, 6-Amino-2-butoxy-9-(4-piperidin-1-ylmethylbenzyl)-7,9-dihydropurin-8-one], the EC50 was found to be 0.9 nM.
`CCCCOc1nc(N)c2[nH]c(=O)n(Cc3ccc(CN4CCC(N(C)C)CC4)cc3)c2n1` [Example 4, 6-Amino-2-butoxy-9-[4-(4-dimethylaminopiperidin-1-ylmethyl)benzyl]-7,9-dihydropurin-8-one]: the EC50 turned out to be 2.5 nM.
As for `CCCCOc1nc(N)c2[nH]c(=O)n(Cc3ccc(CN4CCC(N(C)C)C4)cc3)c2n1` (centres unmarked) [Example 5, 6-Amino-2-butoxy-9-[4-(3-dimethylaminopyrrolidin-1-ylmethyl)benzyl]-7,9-dihydropurin-8-one], the EC50 stood at 2.7 nM.
As to `CCOc1nc(N)c2[nH]c(=O)n(Cc3ccc(CN4CCOCC4)cc3)c2n1` [Example 68, 6-Amino-2-ethoxy-9-(4-morpholin-4-ylmethylbenzyl)-7,9-dihydropurin-8-one], the EC50 came out at 5.5 nM.
Regarding `CCCCOc1nc(N)c2nc(O)n(Cc3ccc(CN4CCOCC4)cc3)c2n1` [Example 1, 6-Amino-2-butoxy-9-(4-morpholin-4-ylmethylbenzyl)-7,9-dihydropurin-8-one], the EC50 came to 7.2 nM.
Take `CCCCNc1nc(N)c2[nH]c(=O)n(Cc3cnc(OCCN(C)C)c(Cl)c3)c2n1` [Example 58, 6-Amino-2-butylamino-9-[5-chloro-6-(2-dimethylaminoethoxy)pyridin-3-ylmethyl]-7,9-dihydropurin-8-one]: the EC50 was 3.7 nM.
Turning to `Nc1nc(OCCCC(F)(F)F)nc2c1[nH]c(=O)n2Cc1ccc(CN2CCOCC2)cc1` [Example 23, 6-Amino-9-(4-morpholin-4-ylmethylbenzyl)-2-(4,4,4-trifluorobutoxy)-7,9-dihydropurin-8-one], the EC50 worked out at 14.8 nM.
As to `CCCCOc1nc(N)c2[nH]c(=O)n(Cc3ccc(CN4CCN(C)CC4)cc3)c2n1` [Example 3, 6-Amino-2-butoxy-9-[4-(4-methylpiperazin-1-ylmethyl)benzyl]-7,9-dihydropurin-8-one], the concentration for a half-maximal effect (EC50) was 1.8 nM.
`CCCCOc1nc(N)c2[nH]c(=O)n(Cc3ccc(OCCCN(C)C)cc3)c2n1` [Example 37, 6-Amino-2-butoxy-9-[4-(3-dimethylaminopropoxy)benzyl]-7,9-dihydropurin-8-one]: the EC50 came to 1.1 nM.
Consider `CCCCNc1nc(N)c2[nH]c(=O)n(Cc3ccc(CN4CCCCC4)cc3)c2n1` [Example 29, 6-Amino-2-butylamino-9-(4-piperidin-1-ylmethylbenzyl)-7,9-dihydropurin-8-one], for which the EC50 amounted to 7.6 nM.
Same read-out and setting: under `COCCOc1nc(N)c2[nH]c(=O)n(Cc3ccc(CN4CCC(Oc5ccccc5)CC4)cc3)c2n1` [Example 13, 6-Amino-2-(2-methoxyethoxy)-9-[4-(4-phenoxypiperidin-1-ylmethyl)benzyl]-7,9-dihydropurin-8-one] stands 18.7 nM.

The test is the same for the next values; noted with them: Table 6; tested in a similar manner to Example 85; read-out: human TLR7 binding activity EC50.
`COCCOc1nc(N)c2[nH]c(=O)n(Cc3cnc(OCCN(C)C)c(Cl)c3)c2n1` [Example 118, 6-Amino-9-[5-chloro-6-(2-dimethylaminoethoxy)pyridin-3-ylmethyl]-2-(2-methoxyethoxy)-7,9-dihydropurin-8-one]: the half-maximal effective concentration (EC50) came out at 14 nM.
As to `COCCOc1nc(N)c2[nH]c(=O)n(Cc3ccc(OCC(C)(C)CN(C)C)nc3)c2n1` [Example 110, 6-Amino-9-[6-(3-dimethylamino-2,2-dimethylpropoxy)pyridin-3-ylmethyl]-2-(2-methoxyethoxy)-7,9-dihydropurin-8-one], the 50% effective concentration (EC50) stood at 16.5 nM.
`COCCOc1nc(N)c2[nH]c(=O)n(Cc3cnc(N4CCN(C)CC4)c(Cl)c3)c2n1` [Example 105, 6-Amino-9-[5-chloro-6-(4-methylpiperazin-1-yl)pyridin-3-ylmethyl]-2-(2-methoxyethoxy)-7,9-dihydropurin-8-one]: the concentration giving a half-maximal response (EC50) is 3.3 nM.
Same read-out and setting: the same measure for `CCCCNc1nc(N)c2[nH]c(=O)n(Cc3ccc(OCCCN(C)C)nc3)c2n1` [Example 116, 6-Amino-2-butylamino-9-[6-(3-dimethylaminopropoxy)pyridin-3-ylmethyl]-7,9-dihydropurin-8-one]: 19.6 nM.
The same measure, in the same setting: under `CCCCOc1nc(N)c2[nH]c(=O)n(Cc3ccc(CN4CCN(C(=O)CN(C)C)CC4)cc3)c2n1` [Example 94, 6-Amino-2-butoxy-9-{4-[4-(2-dimethylaminoacetyl)piperazin-1-ylmethyl]benzyl}-7,9-dihydropurin-8-one] stands 2.5 nM; under `COCCOc1nc(N)c2[nH]c(=O)n(Cc3cnc(OCC(C)(C)CN(C)C)c(Cl)c3)c2n1` [Example 120, 6-Amino-9-[5-chloro-6-(3-dimethylamino-2,2-dimethylpropoxy)pyridin-3-ylmethyl]-2-(2-methoxyethoxy)-7,9-dihydropurin-8-one], 3.7 nM.
Turning to `COCCOc1nc(N)c2[nH]c(=O)n(Cc3cnc(OC4CCN(C)CC4)c(Cl)c3)c2n1` [Example 123, 6-Amino-9-[5-chloro-6-(1-methylpiperidin-4-yloxy)pyridin-3-ylmethyl]-2-(2-methoxyethoxy)-7,9-dihydropurin-8-one], the 50% effective concentration (EC50) amounted to 6.9 nM.
For the compound `CCCCOc1nc(N)c2[nH]c(=O)n(Cc3ccc(N(C)CCN(C)C)nc3)c2n1` [Example 104, 6-Amino-2-butoxy-9-{6-[(2-dimethylaminoethyl)methylamino]pyridin-3-ylmethyl}-7,9-dihydropurin-8-one], the half-maximal effective concentration (EC50) is 5.3 nM.

The EC50 is the concentration at which the effect is half-maximal.
